Results: patent US20260137668A1, “EZH2 INHIBITION THERAPIES FOR THE TREATMENT OF BRCA1-ASSOCIATED PROTEIN (BAP1) MUTATED CANCERS” (Constellation Pharmaceuticals, Inc., priority 2022, published 2026)

What was measured:
[1] = test system: H28; assay: CellTiter-Glo 2.0 long-term cell viability assay; type: cell-based; details: Homo sapiens, H28, BAP1 mutant
Protocol: (§1) The ability of Compound 1 to selectivity suppress mesothelioma cancer cell viability was assessed in a panel of cell lines after 7, 14 and 21 days of treatment with Compound 1. Cell viability was determined using CellTiter-Glo®2 luminescent cell viability assay.
(§2) Cell culture conditions. MSTO-211H, H2052, H2452, H28, H226 cell lines were obtained from ATCC (Manassas, VA) and were grown in media as recommended by the vendor. For long-term assays, cells were plated in 96-well plates containing. Compound 1. Cell lines were treated with a dose titration of Compound 1 starting at 2 μM top concentration.
(§3) Cellular assay—assessment of cell viability. Relative cell numbers were assessed by CellTiter-Glo® 2.0 luminescent cell viability assay (Promega Catalog #G9243) using a Perkin Elmer EnVision Alpha Reader (Model #2104, Waltham, MA). 50 μL of CellTiter-Glo® 2.0 reagent was added to each well containing 100 μL cell suspension and incubated for 30 min at RT with shaking at low speed. GraphPad Prism was used for curve fitting and GI50 determinations.

[2] = test system: MSTO-211H; assay: CellTiter-Glo 2.0 long-term cell viability assay; type: cell-based; details: Homo sapiens, BAP1 wildtype
Protocol: as §1, §2, §3

[3] = test system: H2452; assay: CellTiter-Glo 2.0 long-term cell viability assay; type: cell-based; details: Homo sapiens, H2452, BAP1 mutant
Protocol: as §1, §2, §3

[4] = test system: H226; assay: CellTiter-Glo 2.0 long-term cell viability assay; type: cell-based; details: Homo sapiens, H226, BAP1 mutant
Protocol: as §1, §2, §3

[5] = test system: H2052; assay: CellTiter-Glo 2.0 long-term cell viability assay; type: cell-based; details: Homo sapiens, H2052, BAP1 wildtype
Protocol: as §1, §2, §3

[6] = test system: PXF 2328; assay: pleural mesothelioma PDX model, tumor growth inhibition; type: in vivo; details: PXF 2328 implanted in NSG mice, 75 mg/kg p.o. QD
Protocol: (§4) Compound 1 was evaluated in 6 patient-derived xenograft (PDX) models of pleural mesothelioma with BAP1 alterations (Table 3) implanted subcutaneously in immunodeficient mice (NSG mice in the case of tumor model PXF 2328, NMRI nu/nu mice for all other tumor models). Each experiment had two groups of generally five mice each enrolled at tumor volumes in the range of 53.9-198.9 mm^3. The first group was a vehicle control group, while the second group was treated with Compound 1, administered orally (p.o.) once daily (QD) at a dose level of 75 mg/kg. The duration of the experiments ranged between 30 and 65 days.
(§5) Antitumor efficacy of all groups was assessed using the vehicle control group as a reference. Tumor growth inhibition was determined by the comparison of tumor growth in the test groups with the vehicle control group and is expressed as the maximum tumor growth inhibition (TGI) value in percent. The statistical significance of differences between test and control groups was assessed using the non-parametric U-test.

[7] = test system: pleural or peritoneal BAP1 loss mesothelioma; assay: human clinical phase 2 study, Compound 1 monotherapy, response by cancer cohort; type: in vivo; details: intermediate cut-off date
Protocol: As part of a human clinical phase 2 study, subjects with pleural or peritoneal BAP1 loss mesothelioma were administered 350 mg/day Compound 1 for up to about 7.5 months (FIG. 1). Compound 1 was administered orally as a single agent (monotherapy). The cancers in each subject were known to have BAP1 mutations as determined by next generation sequencing (NGS) or local immunohistochemistry (IHC) testing prior to treatment. A complete response is characterized as disappearance of all lesions, a partial response is characterized as at least a 30% decrease in the sum of the longest diameter (LD) of target lesions, taking as reference the baseline sum LD; stable disease is characterized as neither sufficient shrinkage to qualify for partial response nor sufficient increase to qualify for progressive disease, taking as reference the smallest sum diameters; and progressive disease is characterized as at least a 20% increase in the sum of the LD of target lesions, taking as reference the smallest sum LD recorded since the treatment started or the appearance of one or more new lesions.

[8] = test system: pleural mesothelioma PDX models with BAP1 alterations; assay: panel of 6 PDX models of pleural mesothelioma with BAP1 alterations; type: in vivo, mice; details: 75 mg/kg p.o. QD
Protocol: as §4, §5

[9] = test system: PXF 1118; assay: pleural mesothelioma PDX model, tumor growth inhibition; type: in vivo, NMRI nu/nu mice; details: PXF 1118, 75 mg/kg p.o. QD; without a statistically significant reduction in tumor volume
Protocol: as §4, §5

[10] = test system: PXF 2443; assay: as above; type: in vivo, NMRI nu/nu mice; details: PXF 2443, 75 mg/kg p.o. QD; without a statistically significant reduction in tumor volume
Protocol: as §4, §5

[11] = test system: PXF 680; assay: as above; type: in vivo, NMRI nu/nu mice; details: PXF 680, 75 mg/kg p.o. QD; statistically significant reduction in tumor volume vs vehicle (U-test)
Protocol: as §4, §5

[12] = test system: PXF 541; assay: as above; type: in vivo, NMRI nu/nu mice; details: PXF 541, 75 mg/kg p.o. QD; statistically significant reduction in tumor volume vs vehicle (U-test)
Protocol: as §4, §5

[13] = test system: PXF 537; assay: as above; type: in vivo, NMRI nu/nu mice; details: PXF 537, 75 mg/kg p.o. QD; statistically significant reduction in tumor volume vs control
Protocol: as §4, §5

[14] = 350 mg/day oral monotherapy, efficacy evaluable patients N = 9

GI50 ([3]; NCI-H2452, 168 h, Day 7): > 2000 nM | GI50 ([3]; NCI-H2452, 336 h, Day 14): 6 nM | GI50 ([3]; NCI-H2452, 504 h, Day 21): 5 nM | GI50 ([4]; NCI-H226, 168 h, Day 7): > 2000 nM | GI50 ([4]; NCI-H226, 336 h, Day 14): > 2000 nM | GI50 ([4]; NCI-H226, 504 h, Day 21): > 2000 nM | GI50 ([5]; NCI-H2052, 168 h, Day 7): > 2000 nM | GI50 ([5]; NCI-H2052, 336 h, Day 14): > 2000 nM | GI50 ([5]; NCI-H2052, 504 h, Day 21): > 2000 nM
SMILES: COC1CN([C@H]2CC[C@H]([C@@]3(C)Oc4c(Cl)cc(C(=O)NCc5c(SC)cc(C)[nH]c5=O)c(C)c4O3)CC2)C1 [Compound 1, (R)-7-chloro-2-((1r,4R)-4-(3-methoxyazetidin-1-yl)cyclohexyl)-2,4-dimethyl-N-((6-methyl-4-(methylthio)-2-oxo-1,2-dihydropyridin-3-yl)methyl)benzo[d][1,3]dioxole-5-carboxamide]
GI50 ([1]; NCI-H28, 168 h, Day 7): > 2000 nM | GI50 ([1]; NCI-H28, 336 h, Day 14): 234 nM | GI50 ([1]; NCI-H28, 504 h, Day 21): 45 nM | GI50 ([2]; 168 h, Day 7): > 2000 nM | GI50 ([2]; 336 h, Day 14): > 2000 nM | GI50 ([2]; 504 h, Day 21): > 2000 nM | effect on tumor growth [6]: inactive | Complete response [7, 14]: 0 n (%) | Partial response [7, 14]: 2 (22.2) n (%) | Progressive disease [7, 14]: 3 (33.3) n (%) | Stable disease [7, 14]: 4 (44.4) n (%) | patients showing (partial) response and stable disease [7]: > 60% | PDX models with a relevant TGI of greater than 50% [8]: 4 out of the 6 | effect on tumor growth [9]: slowed growth | effect on tumor growth [10]: slowed growth | maximum tumor growth inhibition (TGI) [11]: > 100% | maximum tumor growth inhibition (TGI) [12]: > 100% | effect on tumor growth [13]: almost stasis
